Laboratory results reported in patent US8609862B2, “Use of an adrenal hormone-modifying agent” (Novartis AG, priority 2010, dated 2013).

Key:
[1] = target: T1, CYP11B2 (Rattus norvegicus, UniProt P30099); experiment: In vivo assay: plasma aldosterone concentration (PAC) in ACTH-infused conscious rats; settings: ACTH infusion; for % Reduction from baseline PAC t = 1 h: 1 h after dosing; for % Reduction from baseline PAC 8 h: 8 h after dosing
T1 construct: from tissue; host or cells: whole animal: conscious male Sprague-Dawley rats under ACTH infusion (the adrenal gland as site of the enzyme comes from the background, b5)
T1 sequence (P30099 35-510): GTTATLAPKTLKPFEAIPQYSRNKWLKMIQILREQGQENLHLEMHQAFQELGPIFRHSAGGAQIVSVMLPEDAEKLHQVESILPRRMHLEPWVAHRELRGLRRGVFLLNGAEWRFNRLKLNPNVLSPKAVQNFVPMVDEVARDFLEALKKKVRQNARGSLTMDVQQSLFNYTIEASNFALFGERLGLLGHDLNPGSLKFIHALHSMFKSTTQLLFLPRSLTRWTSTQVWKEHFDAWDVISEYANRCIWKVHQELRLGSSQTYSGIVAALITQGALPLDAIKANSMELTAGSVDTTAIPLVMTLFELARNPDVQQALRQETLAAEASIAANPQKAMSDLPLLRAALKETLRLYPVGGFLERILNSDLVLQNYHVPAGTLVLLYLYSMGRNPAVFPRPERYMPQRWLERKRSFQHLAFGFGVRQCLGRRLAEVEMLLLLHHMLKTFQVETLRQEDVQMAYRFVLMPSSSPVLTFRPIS
Description: The in vivo effects of compounds on plasma aldosterone concentration (PAC) and plasma glucocorticoid (corticosterone) concentration (PCC) were evaluated in conscious rats.
Male Sprague-Dawley rats (˜400-600 g body weight) were surgically instrumented with a femoral arterial and venous catheter. The catheters were exteriorized from the lower back through a stainless steel spring and swivel system that enabled the rats to move freely at all times. Rats were allowed at least one week to recover from the surgery before initiating the experiments.
On the morning of the experiment, a pretreatment blood sample was collected on heparin from the arterial catheter. The blood samples were spun in a refrigerated centrifuge to generate plasma. The plasma was stored frozen at −70° C. until the later measurement of PAC and PCC (by radioimmunoassay). Adrenocorticotropic hormone (ACTH(1-24), referred to herein as ACTH) was then administered as an intravenous (i.v.) bolus (100 ng/kg) followed by a continuous i.v. infusion (30 ng/kg/min) for 9 hours. After one hour of infusion, a baseline (time 0) blood sample was withdrawn from the arterial catheter and processed and stored as described above. The rats were then dosed (typically 0.01 to 100 mg/kg) with the test compound p.o. by oral gavage or parenterally via the arterial catheter (i.a.). Compounds were formulated in an appropriate vehicle (e.g., water (p.o.) or saline (i.a.)) at a physiologically compatible volume (typically 1-2 ml/kg). Additional blood samples were withdrawn at 0.083 (i.a. only), 0.25, 0.5, 1, 2, 3, 4, 5, 6, 7, 8, and 24 hours after dosing with compound and processed and stored as above for later determination of PAC, PCC, and plasma compound concentration (by LC/MS/MS). Oral bioavailability and traditional pharmacokinetic (PK) parameters were estimated from the plasma compound concentrations.
Based on the plasma compound concentration at each dose, the PK/PD (pharmacodynamic) profiles (reduction of PAC and PCC) of each compound were determined.

[2] = target: T2, Human CYP11B2 (Homo sapiens, UniProt P19099); experiment: In vitro human CYP11B2 (aldesterone) assay in NCI-H295R cells; type: cell-based; settings: 1 μM Ang II, 24 hr, aldosterone production by SPA
T2 construct: host or cells: NCI-H295R human adrenocortical carcinoma cells, stimulated with 1 uM Ang II
T2 sequence (P19099 25-503): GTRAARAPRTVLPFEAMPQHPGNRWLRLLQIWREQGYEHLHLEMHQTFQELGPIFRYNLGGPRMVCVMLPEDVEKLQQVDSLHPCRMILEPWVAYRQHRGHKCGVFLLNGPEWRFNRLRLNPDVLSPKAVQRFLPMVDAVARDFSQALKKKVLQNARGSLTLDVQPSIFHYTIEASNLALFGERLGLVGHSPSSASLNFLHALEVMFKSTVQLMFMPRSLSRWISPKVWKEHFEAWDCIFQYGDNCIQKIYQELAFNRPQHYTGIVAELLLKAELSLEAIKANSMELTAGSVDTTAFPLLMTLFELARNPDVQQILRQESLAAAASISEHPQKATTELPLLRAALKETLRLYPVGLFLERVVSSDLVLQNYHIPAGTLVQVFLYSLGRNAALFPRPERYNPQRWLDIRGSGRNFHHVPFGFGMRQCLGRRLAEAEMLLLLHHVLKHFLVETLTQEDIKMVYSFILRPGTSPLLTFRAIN
From the text: Human adrenocortical carcinoma NCI-H295R cell line was obtained from American Type Culture Collection (Manassas, Va.). […] Anti-mouse PVT scintillation proximity assay (SPA) beads and NBS 96-well plates were obtained from GE Health Sciences (Piscataway, N.J.) and Corning (Acton, Mass.), respectively. Solid black 96-well flat bottom plates were purchased from Costar (Corning, N.Y.). Aldosterone and angiotensin (Ang II) were purchased from Sigma (St. Louis, Mo.). D-[1,2,6,7-^3H(N)]aldosterone was acquired from PerkinElmer (Boston, Mass.). Nu-serum was a product of BD Biosciences (Franklin Lakes, N.J.).
Measurement of aldosterone activity can also be performed using a 96-well plate format. […] The amount of aldosterone in each sample is calculated by comparing with a standard curve generated using known quantities of the hormone.
Inhibition of the release of certain steroids can be used as a measure of the respective enzyme inhibition by the added test compounds. […] The inhibition plot is calculated by fitting a 4-parameter logistic function to the raw data points using the least squares method. The equation of the 4-parameter logistic function is calculated as follows: Y=(d−a)/((1+(x/c)b))+a, where: a=minimum data level, b=gradient, I […], d=maximum data level, x=inhibitor concentration.

[3] = target: T3, Rat CYP11B2 (Rattus norvegicus, UniProt P30099); experiment: In vitro rat CYP11B2 assay; type: biochemical; settings: V79-4 cell homogenate, 11-deoxycorticosterone to aldosterone, SPA
T3 construct: made in house; host or cells: V79-4 cell line #305 (stably selected with geneticin and hygromycin); sonicated homogenate, 500 x g supernatant
T3 sequence (P30099 35-510): T1 sequence (P30099 35-510)
Description: Following 2 days of growth, cells are washed once with PBS, scraped and collected in PBS, and centrifuged at 1,300 rpm for 6 min. […] The sonication procedure is repeated 3 more times, with a 5 min incubation on ice between sonications. The sonicated material is then spun at 500×g for 4 min to remove unbroken cells. The supernatant is brought to a final glycerol concentration of 5%, flash-frozen in liquid nitrogen, and stored at −80° C.
The CYP11B2 assay is performed in 96-well U-bottom non-tissue-culture-treated plates. […] Plates are then centrifuged at 2,400 rpm for 6 min, and 100 μl of supernatant is removed for measurement of aldosterone content by scintillation proximity assay (SPA).
Measurement of aldosterone is performed using a 96-well plate format. […] Anti-mouse PVT SPA beads (50 μl) are then added to each well and incubated for 4 hr at room temperature prior to counting in a Microbeta plate counter. The amount of aldosterone in each sample is calculated by comparing with a standard curve generated using known quantities of the hormone.
Full concentration-response curves of an inhibitor are performed at least 3 times. The IC50 values are derived using a non-linear least squares curve-fitting program from DBS XLfit.

Row | SMILES | % Reduction from baseline PAC t = 1 h ([1]; 30 mg/kg i.a.) [%] | % Reduction from baseline PAC 8 h ([1]; 30 mg/kg i.a.) [%] | IC50 [2] [nM] | IC50 [3] [nM] | % Reduction from baseline PAC t = 1 h ([1]; 3 mg/kg i.a.) [%] | % Reduction from baseline PAC 8 h ([1]; 3 mg/kg i.a.) [%] | % Reduction from baseline PAC t = 1 h ([1]; 10 mg/kg p.o.) [%] | % Reduction from baseline PAC 8 h ([1]; 10 mg/kg p.o.) [%]
1 | COc1ccc(CN(C)C(=O)C2(c3ccc(C#N)cc3Cl)CCc3cncn32)cc1 (stereo not drawn) [5-(2-chloro-4-cyanophenyl)-N-(4-methoxybenzyl)-N-methyl-6,7-dihydro-5H-pyrrolo[1,2-c]imidazole-5-carboxamide] | 23 | 59 | 2.7 | 5 |  |  |  | 
2 | N#Cc1ccc(C2CCCCc3cncn32)c(-c2ccc(F)cc2)c1 (single isomer, unassigned) [4′-fluoro-6-(6,7,8,9-tetrahydro-5H-imidazo[1,5-a]azepin-5-yl)biphenyl-3-carbonitrile] |  |  | 0.4 | 1 | 83 | 76 |  | 
3 | N#Cc1ccc(C2CCCCc3cncn32)c(Br)c1 (racemic) [3-bromo-4-(6,7,8,9-tetrahydro-5H-imidazo[1,5-a]azepin-5-yl)benzonitrile racemate, 3-bromo-4-(6,7,8,9-tetrahydro-5H-imidazo[1,5-a]azepin-5-yl)benzonitrile] |  |  | 1.2 | 1 |  |  | 79 | 89
